# Publication PMC8553829, “Improvement of a synthetic live bacterial therapeutic for phenylketonuria with biosensor-enabled enzyme engineering” (Nature Communications, 2021)
# Molecular target: T1, StlA (PAL, phenylalanine ammonia lyase) (Photorhabdus laumondii, UniProt Q7N4T3)
# T1 construct: gene plu2234; full-length, untagged; aTc-inducible low-copy plasmid in E. coli Nissle 1917; soluble cell lysate
# T1 sequence (Q7N4T3 1-532): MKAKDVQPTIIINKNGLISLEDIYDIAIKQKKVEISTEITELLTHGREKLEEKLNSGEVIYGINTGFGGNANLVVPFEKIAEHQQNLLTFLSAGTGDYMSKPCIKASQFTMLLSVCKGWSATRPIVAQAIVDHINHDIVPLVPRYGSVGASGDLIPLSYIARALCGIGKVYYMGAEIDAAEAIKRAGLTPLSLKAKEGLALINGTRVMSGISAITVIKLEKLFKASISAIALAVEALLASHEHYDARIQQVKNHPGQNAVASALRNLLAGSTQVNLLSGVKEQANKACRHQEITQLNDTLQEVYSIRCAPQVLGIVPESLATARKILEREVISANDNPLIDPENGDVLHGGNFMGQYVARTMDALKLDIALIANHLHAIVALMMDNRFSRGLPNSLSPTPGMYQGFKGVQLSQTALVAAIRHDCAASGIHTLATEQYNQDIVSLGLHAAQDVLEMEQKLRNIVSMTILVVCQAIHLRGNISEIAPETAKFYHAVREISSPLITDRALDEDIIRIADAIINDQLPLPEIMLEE
# Experiment: TCA formation followed at A290, nonlinear Michaelis-Menten fit
# Format: biochemical
# Settings: soluble lysate of E. coli Nissle (EP2315), 10 µg total protein per well; M9 0.5% glucose, 37 °C
# Description: TCA formation followed at A290, nonlinear Michaelis-Menten fit on StlA (PAL, phenylalanine ammonia lyase)
smiles,measurement,value
N[C@@H](Cc1ccccc1)C(=O)O [Phe],KM (mM Phe),1.69 ± 0.37 mM
